From US8889902B2, “Acetylsalicylic acid salts” (priority 2009, dated 2014) come the findings set out here.

SMILES strings stand for the structures.

Series [1] concerns FeCl3 induced carotid artery thrombosis. In words: FeCl3 induced carotid artery thrombosis, time till occlusion. The format is in vivo, Wistar rats. The settings on record: for Time till occlusion, %: control = 100. The source says:
We chose an experimental thrombosis model based on rat arterial thrombosis induced by FeCl3 (Kurz K et al, Thromb Res 1990, 60:269-280. Wang X, Xu L, Thromb Res 2005,115:95-100). Tissue damage initiated by iron-mediated chemical oxidation predisposes the injured area to platelet adherence and aggregation followed by coagulation activation and fibrin deposition. Male Wistar rats with mass 350-420 g were used in experiments. Animals were kept in groups of 7-8 in adequate cages in climatized room at 22±1° C., relative humidity 60±5% and 12/12-hour light/darkness cycle with free access to feed and water. All experiments were carried out in accordance with the European Community Council's Directive of 24 Nov. 1986 (86/609/EEC) relative to experimental animal care. All efforts were made to minimize animal suffering and to reduce the number of animals used. Rats were randomly divided into various experimental groups, each consisting of not less than seven animals. The vehicle or test compound MD (25 mg/kg), NA (25 mg/kg), MASA (10 mg/kg), ASA (5 mg/kg) and combination MD+NA (25+25 mg/kg), MASA+NA (10+25 mg/kg) and ASA+NA (5+25 mg/kg) was administered by oral route 2 h before the initiation of thrombosis. Parallel experiments were conducted to compare the effects of a single dose of test substance (given 2 h before the initiation of thrombosis) and repeated doses (once daily for 3 days). […] Rats were anaesthetized with pentobarbital sodium (50 mg/kg, i.p. and 10 mg/kg/h) and were placed on a heat controlled operating table throughout the experiment to maintain a body temperature of 37° C. One of the carotid arteries was exposed by cervical incision, separated from the adherent tissue, vagus nerve, and a flow probe (electromagnetic blood flow meter MFV 1200, Nicon Kohden, Japan) was placed on the exposed segment of common carotid artery to record the blood flow. After a stabilization period of 15 min, thrombosis was induced by topically applying (in contact with the adventitial surface of vessel) two pieces (2×1 mm) of Whatman filter paper, soaked in 15% solution of FeCl3. Thrombosis time of carotid artery was recorded as time taken for the complete cessation of the blood flow and has been reported as time till occlusion (TTO).

Series [2] deals with tail bleeding. In words: Tail bleeding time during thrombosis experiment. Type of series: in vivo, rats. The settings on record: for Tail bleeding time, %: control = 100. As for the experimental part: Additionally during the thrombosis experiment rat tail bleeding time was measured. The tail was transected 5 mm from the tip with scalpel and the tail was immediately immersed into 37° C. warm isotonic saline until termination of bleeding was noted. Termination of bleeding was defined as the time of complete stop of bleeding with no recurrence of bleeding within the next 30 s.

The subject of series [3] is platelet aggregation. In words: Platelet aggregation ex vivo after 3 days treatment. The format is in vivo, rats. The note with it: 5 mg/kg/d p.o. 3 days. As for the experimental part: Platelet aggregation was studied using whole blood impedance aggregometry on Multiplate (Multiple Platelet Function Analyzer, Dynabyte Medical, Germany) (Toth O et al, Thromb Haemost 2006; 96:781-788. […] Blood samples for in vitro experiment were collected from healthy donor B. […] In the ex vivo experiment blood was collected into plastic tubes covered with hirudin (Dynabyte Medical, Germany) from narcotized rats that were treated for 3 previous days with test substances p.o. The measurements were performed according to modified Dynabyte Medical protocol. […] After 5 min incubation and stirring at 37° C., measurements were initiated by adding of the appropriate agonist solution (sourced from Dynabyte Medical, Germany): After the thrombosis experiment the narcotized animals who received test substances for 3 days were used for platelet aggregation test ex vivo. […] Blood samples were used for measurement between 30 min and 4 h after collection. The measurements were performed according to modified Dynabyte Medical protocol (see above under Platelet aggregation).

Series [4] relates to platelet aggregation. The series is described as follows: Platelet aggregation in vitro, whole blood impedance aggregometry (Multiplate). Type of series: cell-based, healthy donor. The settings on record: 3 × 10^−4. As for the experimental part: Platelet aggregation was studied using whole blood impedance aggregometry on Multiplate (Multiple Platelet Function Analyzer, Dynabyte Medical, Germany) (Toth O et al, Thromb Haemost 2006; 96:781-788. […] Blood samples for in vitro experiment were collected from healthy donor B. […] In the ex vivo experiment blood was collected into plastic tubes covered with hirudin (Dynabyte Medical, Germany) from narcotized rats that were treated for 3 previous days with test substances p.o. The measurements were performed according to modified Dynabyte Medical protocol. […] After 5 min incubation and stirring at 37° C., measurements were initiated by adding of the appropriate agonist solution (sourced from Dynabyte Medical, Germany): 1) adenosine diphosphate (ADP)-ADP-Test. ADP stimulates platelet activation by the ADP receptors (P2Y 12 and other). […] 3) ADP HS test (prostaglandin E1 in combination with ADP). […] Aggregation curves were recorded for 6 min. and analyzed using Dynabyte Medical software. We calculated the following parameters of platelet aggregation: […] It is affected by the total height of the aggregation curve as well as by its slope and is best suited to express the overall platelet activity.

A short description of series [5]: Solubility in water.
Series [6] can be described thus: Stability at ambient conditions.
Series [7] has as its system rat ear skin temperature. In words: Ear skin temperature rise caused by NA, s.c. administration. The format is in vivo, Wistar rats. The note with it: LA 0.3 mg/kg s.c. alone. As for the experimental part: Male Wistar rats (280-330 g) were used. Animals were held in groups of 6 in climatized rooms at 22±1° C., relative humidity 60±5%, and 12/12-hour light/dark cycle with free access to drinking water and feed (R3—Lactamin AB, Sweden). For registration of changes in skin temperature of intact rats contactless temperature recording method was used (Papaliodis D et al, Br J Pharmacol 2008; 153:1382-1387). Temperature measurements were performed with a hand-held infrared thermometer (Model Proscan 510, TFA-Dostman). Animals were habituated to handling and to the infrared probe for 3 days before use. Temperature readings from the dorsal side of each ear were recorded without anaesthesia at beginning and during experiment. The ear temperature was measured every 5 min. for a period of up to 60 min. The animals were returned to their cages between measurements. NA, MD and MASA were dissolved in saline and pH was corrected immediately before usage. LA (MK 0524, Cayman Chemicals) was first dissolved in DMSO and then freshly diluted with 0.9% NaCl, on each day of the experiment. The rate of NA and LA combination was based on Summary of Product Characteristics for Tredaptive™ (nicotinic acid/laropiprant) 1000 mg/20 mg modified-release tablets.
The influence of LA, MD or MASA alone on skin temperature was checked. Each investigated compound was introduced s.c. simultaneously with NA as LA+NA [0] or 30 min in advance to NA as LA+NA [30].

The mark [8] stands for this setting: 5 mg/kg/d p.o., repeated, 3 days.

As to `COC(=O)[C@H](c1ccccc1Cl)N1CCc2sccc2C1` [CL, clopidogrel], the Time till occlusion in series [1] (5 mg/kg p.o., single dose 2 h before) is 31.7 ± 2.40^1 min; in series [1] (setting [8]) it was 49.1 ± 7.75^1 min. Moreover, the “Time till occlusion, %” value stood at 130% in series [1] (5 mg/kg p.o., single dose) and 194% in series [1] (setting [8]). Moreover, the Tail bleeding time was 11.9 ± 3.62 min in series [2] (5 mg/kg p.o., single dose) and 18.3 ± 3.78^1 min in series [2] (setting [8]). Also, the “Tail bleeding time, %” value in series [2] (5 mg/kg p.o., single dose) amounted to 134%; in series [2] (setting [8]), 213%. For the same compound, the AUC in series [3] (AA induced) is given as 905 ± 53.5^& AU*min; in series [3] (ADP induced), 423 ± 39.4^2& AU*min; in series [3] (PGE1 + ADP induced), 259 ± 49.3^2& AU*min. Besides, the Amax in series [3] (AA induced) is given as 160.7 ± 13.5^&@ AU; in series [3] (ADP induced), 68.2 ± 15.1^2& AU; in series [3] (PGE1 + ADP induced) it was 49.7 ± 9.9^3&& AU.

As for `OCCN(CCO)c1nc(N2CCCCC2)c2nc(N(CCO)CCO)nc(N3CCCCC3)c2n1` [DI, dipyridamole], in series [4] (AA induced), the AUC is given as 1104 ± 45.5^&@@ AU*min and the Amax is given as 173.9 ± 5.2^&@@ AU. For the same compound, in series [4] (ADP induced), the AUC is recorded as 665 ± 44.1^2& AU*min and the Amax was 111.1 ± 6.9^2& AU.

As for `CC(=O)Oc1ccccc1C(=O)[O-].C[N+](C)(C)CCCC(=O)O` [Example 1, 4-trimethylammoniobutanoate Acetylsalicylic Acid Addition Salt], the “solubility in water (in words)” value in series [5] is given as “water soluble”. Further, the “stability (in words)” value in series [6] was “stable at ambient conditions”.

On to `CS(=O)(=O)c1cc(F)cc2c3c(n(Cc4ccc(Cl)cc4)c12)[C@@H](CC(=O)O)CC3` [LA, laropiprant], for which, in series [7], the Maximum temperature is on record as 29.5 ± 0.35^$$$ ° C.
